This note sets out measurements from US11229623B2 (GlaxoSmithKline Intellectual Property (No.2) Limited, priority 2016, dated 2022).

Structures are written as SMILES.

In the test the target is T1, human TRPV4 (Homo sapiens, UniProt Q9HBA0).
T1 construct: expressed in transfected cells; host or cells: BHK/AC9 cells transduced with BacMam virus
T1 sequence (Q9HBA0 whole entry): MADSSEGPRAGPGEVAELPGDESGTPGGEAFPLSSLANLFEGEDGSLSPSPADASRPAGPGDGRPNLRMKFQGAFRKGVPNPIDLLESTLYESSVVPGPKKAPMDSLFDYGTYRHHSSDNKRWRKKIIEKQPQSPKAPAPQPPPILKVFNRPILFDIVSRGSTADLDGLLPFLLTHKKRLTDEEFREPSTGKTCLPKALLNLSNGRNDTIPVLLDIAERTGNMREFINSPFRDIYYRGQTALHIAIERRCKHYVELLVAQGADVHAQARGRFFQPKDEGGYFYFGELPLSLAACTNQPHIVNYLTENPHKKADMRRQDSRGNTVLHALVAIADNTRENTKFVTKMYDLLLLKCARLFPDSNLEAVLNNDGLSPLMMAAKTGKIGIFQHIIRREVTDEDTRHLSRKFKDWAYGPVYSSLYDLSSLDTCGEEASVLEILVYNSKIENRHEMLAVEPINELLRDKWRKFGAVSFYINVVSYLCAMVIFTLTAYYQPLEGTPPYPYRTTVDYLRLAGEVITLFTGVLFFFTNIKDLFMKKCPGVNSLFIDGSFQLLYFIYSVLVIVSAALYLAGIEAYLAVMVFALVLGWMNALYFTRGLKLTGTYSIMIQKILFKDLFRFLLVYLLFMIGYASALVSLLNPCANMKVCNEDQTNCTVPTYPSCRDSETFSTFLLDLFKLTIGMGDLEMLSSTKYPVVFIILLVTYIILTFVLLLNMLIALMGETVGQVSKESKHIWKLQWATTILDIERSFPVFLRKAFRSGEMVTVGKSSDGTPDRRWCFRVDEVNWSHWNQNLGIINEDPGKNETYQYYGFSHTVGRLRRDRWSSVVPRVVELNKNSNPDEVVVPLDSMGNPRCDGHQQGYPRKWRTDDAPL
As to the kind of experiment: FLIPR assay for hTRPV4 expressed in BHK cells: inhibition of Agonist Compound-induced calcium signal. The note with it: hTRPV4 in BHK/AC9 cells, FLIPR calcium signal, agonist at EC80; reported as range class; read-out: IC50. The format is cell-based. An outline of the steps: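 BHK/AC9 cells transduced with BacMam human TRPV4 (MOI 78), plated 15,000 per well and cultured 24 h at 37° C. Loaded with 2 μM Fluo-4 AM plus 500 μM Brilliant Black in HBSS for 1-1.5 h at room temperature in the dark; intracellular calcium signal read by FLIPR fluorescence.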
For orientation: IC50 means the concentration needed to halve the response being measured. Consider `N#Cc1ccc(O[C@H]2CN(S(=O)(=O)c3ccc(C(F)(F)F)cn3)C[C@@]2(O)CO)cc1F` [Example 84, 2-fluoro-4-(((3S,4R)-4-hydroxy-4-(hydroxymethyl)-1-((5-(trifluoromethyl)pyridin-2-yl)sulfonyl)pyrrolidin-3-yl)oxy)benzonitrile], for which the IC50 was 10 to 100 nM.
In the case of `N#Cc1ccc(O[C@H]2CN(S(=O)(=O)c3ccccc3Cl)C[C@@]2(O)CO)cc1F` [Example 85, 4-(((3S,4R)-1-((2-chlorophenyl)sulfonyl)-4-hydroxy-4-(hydroxymethyl)pyrrolidin-3-yl)oxy)-2-fluorobenzonitrile] it was 10 to 100 nM.
In the case of `N#Cc1ccc(O[C@H]2CN(S(=O)(=O)c3ccc(Cl)s3)C[C@@]2(O)CO)cc1F` [Example 86, 4-(((3S,4R)-1-((5-chlorothiophen-2-yl)sulfonyl)-4-hydroxy-4-(hydroxymethyl)pyrrolidin-3-yl)oxy)-2-fluorobenzonitrile], the IC50 was 10 to 100 nM.
For `Cc1nc(C(F)(F)F)c(S(=O)(=O)N2C[C@H](Oc3ccc(C#N)c(F)c3)[C@](O)(CO)C2)s1` [Example 87, 2-fluoro-4-(((3S,4R)-4-hydroxy-4-(hydroxymethyl)-1-((2-methyl-4-(trifluoromethyl)thiazol-5-yl)sulfonyl)pyrrolidin-3-yl)oxy)benzonitrile], the IC50 was 10 to 100 nM.
With `N#Cc1ccc(O[C@H]2CN(S(=O)(=O)c3sc(Cl)nc3Cl)C[C@@]2(O)CO)cc1F` [Example 88, 4-(((3S,4R)-1-((2,4-dichlorothiazol-5-yl)sulfonyl)-4-hydroxy-4-(hydroxymethyl)pyrrolidin-3-yl)oxy)-2-fluorobenzonitrile] the figure was 10 to 100 nM; with `Cn1ncc(Cl)c1S(=O)(=O)N1C[C@H](Oc2ccc(C#N)c(F)c2)[C@](O)(CO)C1` [Example 89, 4-(((3S,4R)-1-((4-chloro-1-methyl-1H-pyrazol-5-yl)sulfonyl)-4-hydroxy-4-(hydroxymethyl)pyrrolidin-3-yl)oxy)-2-fluorobenzonitrile], 10 to 100 nM; with `N#Cc1ccc(O[C@H]2CN(S(=O)(=O)c3c(Cl)nc4sccn34)C[C@@]2(O)CO)cc1F` [Example 90, 4-(((3S,4R)-1-((6-chloroimidazo[2,1-b]thiazol-5-yl)sulfonyl)-4-hydroxy-4-(hydroxymethyl)pyrrolidin-3-yl)oxy)-2-fluorobenzonitrile], 10 to 100 nM.
On to `N#Cc1ccc(O[C@H]2CN(S(=O)(=O)c3ccc(Cl)nc3)C[C@@]2(O)CO)cc1F` [Example 91, 4-(((3S,4R)-1-((6-chloropyridin-3-yl)sulfonyl)-4-hydroxy-4-(hydroxymethyl)pyrrolidin-3-yl)oxy)-2-fluorobenzonitrile], for which the IC50 is 10 to 100 nM.
Regarding `N#Cc1ccc(O[C@H]2CN(S(=O)(=O)c3ccc(Cl)nc3Cl)C[C@@]2(O)CO)cc1F` [Example 92, 4-(((3S,4R)-1-((2,6-dichloropyridin-3-yl)sulfonyl)-4-hydroxy-4-(hydroxymethyl)pyrrolidin-3-yl)oxy)-2-fluorobenzonitrile], the IC50 fell in the range of 0.1 to 10 nM.
With `C#Cc1ccccc1S(=O)(=O)N1C[C@H](Oc2ccc(C#N)c(F)c2)[C@](O)(CO)C1` [Example 93, 4-(((3S,4R)-1-((2-ethynylphenyl)sulfonyl)-4-hydroxy-4-(hydroxymethyl)pyrrolidin-3-yl)oxy)-2-fluorobenzonitrile] the figure was 10 to 100 nM; with `N#Cc1ccc(O[C@H]2CN(S(=O)(=O)c3cccc(Cl)c3Cl)C[C@@]2(O)CO)cc1F` [Example 94, 4-(((3S,4R)-1-((2,3-dichlorophenyl)sulfonyl)-4-hydroxy-4-(hydroxymethyl)pyrrolidin-3-yl)oxy)-2-fluorobenzonitrile], 10 to 100 nM.
In the case of `N#Cc1ccc(O[C@H]2CN(S(=O)(=O)c3cccc(Cl)c3C#N)C[C@@]2(O)CO)cc1F` [Example 95, 4-(((3S,4R)-1-((3-chloro-2-cyanophenyl)sulfonyl)-4-hydroxy-4-(hydroxymethyl)pyrrolidin-3-yl)oxy)-2-fluorobenzonitrile] it was 0.1 to 10 nM.
